PMC3368874, “Characterization of 4-HNE Modified L-FABP Reveals Alterations in Structural and Functional Dynamics” (PLoS ONE, 2012)

Legend:
[1] = target: T1, 4-HNE modified rL-FABP (Mus musculus, UniProt P12710); assay: ANS equilibrium binding to 4-HNE treated rL-FABP (fluorescence); conditions: saturation analyses
T1 construct: made in house; host or cells: Escherichia coli BL21 (DE3)
T1 sequence (P12710 1-127): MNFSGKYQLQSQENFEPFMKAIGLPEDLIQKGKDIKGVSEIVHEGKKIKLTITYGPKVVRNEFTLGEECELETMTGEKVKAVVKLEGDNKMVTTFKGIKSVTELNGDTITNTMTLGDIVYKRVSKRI
Procedure: Steady-state fluorescence spectra were measured using a HORIBA JOBIN YVON FluoroMax-3 Fluorometer (Edison, NJ USA). The binding of ANS to rL-FABP was monitored following excitation at 370 nm and emission at 475 nm, with slits set at 2 and 4 nm, respectively. Measurements were taken at ambient temperature in a 0.7 mL fluorescence cuvette (Starna Cells, Atascadero, CA). Equilibrium binding studies were conducted with saturating concentrations of ANS according to previous studies, [30] with slight modifications. Briefly, ANS (0–45 µM) was titrated into 1 µM rL-FABP in 50 mM tricine buffer (pH 8.0), mixed for 30 seconds, and emission spectra were recorded. rL-FABP was either treated with 4-HNE (0.1X [5.93 µM], 1X [53.93 µM], or 5X [245.09 µM]) or the arginine blocker phenylglyoxal (PG) (10 mM), or a combination of the two (PG +5X). Following treatments, protein was dialyzed overnight in tricine buffer, pH 8.0. Preparation of ANS was conducted according to Denicola et al., where it was solubilized in absolute ethanol and quantified at Abs372 with an extinction coefficient of 8,000 cm^−1·M^−1 prior to use.
Statistical analysis and generation of graphs was performed using GraphPad Prism (v 4.02; GraphPad Software, San Diego, CA) and SigmaPlot (v10.0; Systat Software, San Jose, CA). Statistical differences between control and treated samples were assessed using a paired Student’s t test or a one-way ANOVA with Tukey’s post-test. Differences were considered significant if p<0.05. Nonlinear regression (curve fit) analysis was performed using a two-site binding hyperbola (eq 1), where ΔF is the enhancement in fluorescence intensity upon the binding of ANS to L-FABP to a point of saturation (Bmax). [drawing 1] (1)

[2] = target: T2, apo rL-FABP (Mus musculus, UniProt P12710); assay: Thermal denaturation of apo rL-FABP (UV-monitored)
T2 construct: made in house; host or cells: Escherichia coli BL21 (DE3)
T2 sequence (P12710 1-127): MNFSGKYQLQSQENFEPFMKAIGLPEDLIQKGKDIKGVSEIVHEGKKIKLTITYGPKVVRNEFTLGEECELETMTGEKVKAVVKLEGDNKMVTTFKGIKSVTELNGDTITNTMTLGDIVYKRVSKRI
Procedure: (§1) The stability of rL-FABP was assessed using UV-monitored heating experiments. Native (apo and holo) and 4-HNE modified (apo and holo) rL-FABP (0.8 mg/ml) was thermally denatured in 50 mM tricine buffer (pH 8.0) at 40–95°C over 1.5 hours in a 0.7 mL quartz cell (Starna Cells). Absorbance of rL-FABP was monitored at 260–360 nm using a Chirascan Plus Spectrometer (Applied Photophysics, Leatherhead, Surrey, UK) once per minute. Temperature was continuously ramped 1°C/min. Light scattering was recorded continuously at 360 nm to monitor protein aggregation. Temperature of aggregation (Tm) was determined using Global Analysis T-Ramp software provided by Applied Photophysics (Pro-Data Global3 v1.1.0) following baseline correction.

[3] = target: T3, holo rL-FABP (Mus musculus, UniProt P12710); assay: Thermal denaturation of holo rL-FABP (UV-monitored); conditions: semi-quantitative
T3 construct: made in house; host or cells: Escherichia coli BL21 (DE3)
T3 sequence (P12710 1-127): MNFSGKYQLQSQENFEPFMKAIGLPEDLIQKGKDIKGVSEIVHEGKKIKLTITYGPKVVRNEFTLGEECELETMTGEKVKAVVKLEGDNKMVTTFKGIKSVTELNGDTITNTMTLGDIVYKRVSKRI
Procedure: as §1

[4] = design: method as in PMID 12437335; conditions: cited from earlier work
[5] = target: T4, rL-FABP (Mus musculus, UniProt P12710); assay: Displacement of ANS by fatty acids, WT rL-FABP; type: binding
T4 construct: made in house; host or cells: Escherichia coli BL21 (DE3)
T4 sequence (P12710 1-127): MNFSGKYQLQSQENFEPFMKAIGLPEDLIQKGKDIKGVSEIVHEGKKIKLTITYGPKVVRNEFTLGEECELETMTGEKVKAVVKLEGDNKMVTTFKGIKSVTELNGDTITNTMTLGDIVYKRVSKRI
Procedure: (§2) Lipid displacement assays were adapted from previous publications, [30]. Briefly, lipids were used to displace ANS bound to rL-FABP to assess how 4-HNE modification affects affinity towards more biologic ligands. Lipid stocks were diluted in absolute ethanol (10 mM, 5 mM, 1 mM, 0.1 mM) and prepared in a nitrogen gas chamber. Using conditions similar to ANS binding, increasing concentrations of FAs [stearate (SA), oleate (OA), and LA] were titrated into a pre-equilibrated solution containing 45 µM ANS, 1 µM r-LFABP, and 50 mM tricine (pH 8.0). The sample was mixed for an additional 30 seconds and the excitation and emission of ANS was measured as mentioned, where the loss of fluorescence indicates affinity towards the lipid.
(§3) For the displacement assays, one-site inhibition analysis of the data was utilized based on the fit of the data (instead of a two-site inhibition analysis) (eq2). Fluorescence counts that are inhibitable are denoted as bi, and residual counts are br. The concentration of OA, SA or LA is denoted as [FA]. The Hill constant, η, indicates the cooperativity between the binding sites, where if η >1 the sites are positively cooperative, η <1 the site are negatively cooperative, and if η = 1 the sites are non-cooperative. [drawing 2] (2)

[6] = target: T5, 4-HNE adducted rL-FABP (Mus musculus, UniProt P12710); assay: Displacement of ANS by fatty acids, 1X 4-HNE treated rL-FABP; type: binding
T5 construct: made in house; host or cells: Escherichia coli BL21 (DE3)
T5 sequence (P12710 1-127): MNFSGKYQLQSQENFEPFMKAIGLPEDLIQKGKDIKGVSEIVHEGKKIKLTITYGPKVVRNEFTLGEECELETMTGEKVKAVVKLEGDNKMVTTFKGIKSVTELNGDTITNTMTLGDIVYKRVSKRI
Procedure: as §2, §3

CCCCCC(O)C=CC=O (centres unmarked) [4-HNE, 4-hydroxy-2-nonenal]
reduction of capacity for ligand when adducted by 4-HNE [1]: approximately 50% | Tm of apo rL-FABP ([2]; 0.1X 4-HNE (4.93 µM)): 70.09±0.004 °C | Tm of apo rL-FABP ([2]; 1X 4-HNE (49.26 µM)): 68.56±0.05 °C | Tm of apo rL-FABP ([2]; 5X 4-HNE (246.31 µM)): 66.38±0.15 °C | ΔTm of apo L-FABP by 4-HNE adduction ([2]; P<0.01): 5.44 °C | Tm of holo rL-FABP ([3]; 0.1X 4-HNE (4.93 µM)): 83.84±0.39 °C | Tm of holo rL-FABP ([3]; 1X 4-HNE (49.26 µM)): 84.89±0.48 °C | Tm of holo rL-FABP ([3]; 5X 4-HNE (246.31 µM)): 83.698±0.53 °C | half-life [4]: ~2 min

CCCCCCCC/C=C\CCCCCCCC(=O)O [Oleic Acid]
br (counts residual) [5]: 171,600±19,800 AFU | n (hill coefficient) [5]: 2.31±0.29 | bi (counts inhibitable) ([5]; 45 µM ANS, 1 µM protein): 680,200±26,500000 AFU | Ki ([5]; 45 µM ANS, 1 µM protein, read-out: ki (inhibition constant)): 5.88 ± 1.45 µM | bi (counts inhibitable) ([6]; 1X 4-HNE (53.95 µM) treated rL-FABP): 457,600±26,400 AFU | Ki ([6]; 1X 4-HNE (53.95 µM) treated rL-FABP, read-out: ki (inhibition constant)): 690 ± 97 nM | br (counts residual) ([6]; 1X 4-HNE treated rL-FABP): 63,500±19,200 AFU | n (hill coefficient) ([6]; 1X 4-HNE treated rL-FABP): 0.81±0.0999 | reduction of maximal binding to the FA by 4-HNE ([6]; 1X 4-HNE treated versus WT rL-FABP): 32.7%

B1: apo rL-FABP: purified, delipidated recombinant mouse liver fatty acid-binding protein (unbound) (protein, UniProt P12710 1-127, looked up)
Fatty acid-binding protein, …: MNFSGKYQLQSQENFEPFMKAIGLPEDLIQKGKDIKGVSEIVHEGKKIKLTITYGPKVVRNEFTLGEECELETMTGEKVKAVVKLEGDNKMVTTFKGIKSVTELNGDTITNTMTLGDIVYKRVSKRI
modifications: delipidated
Tm (temperature of aggregation) ([2]; native apo rL-FABP, 0X 4-HNE): 71.82±0.09 °C

B2: holo rL-FABP: recombinant mouse L-FABP incubated with 1 mM linoleic acid (lipid-bound) (protein, UniProt P12710 1-127, looked up)
Fatty acid-binding protein, …: MNFSGKYQLQSQENFEPFMKAIGLPEDLIQKGKDIKGVSEIVHEGKKIKLTITYGPKVVRNEFTLGEECELETMTGEKVKAVVKLEGDNKMVTTFKGIKSVTELNGDTITNTMTLGDIVYKRVSKRI
modifications: linoleic acid bound
Tm (temperature of aggregation) ([3]; native holo rL-FABP (linoleic acid bound)): 86.09±0.57 °C
